According to patent US20050192261A1, “Methods and reagents for the treatment of immunoinflammatory disorders” (priority 2003, published 2005):
Read-outs that look alike come from different tables or passages of the source.

System: TNFα secretion in white blood cells from human buffy coat stimulated with phorbol 12-myristate 13-acetate and ionomycin
Test: TNFα secretion assay
Settings: Homo sapiens
Experimental: Drugs were added to the indicated concentration. […] The plate was then washed again with 0.1% Tween 20/PBS. An HRP-luminescent substrate was added to each well, and the light intensity of each well was measured using a plate luminometer.

C[C@]12C=CC(=O)C=C1CC[C@@H]1[C@@H]2[C@@H](O)C[C@@]2(C)[C@H]1CC[C@]2(O)C(=O)CO [Prednisolone, prednisolone] gave an inhibition at 0.5 µM (read-out: % inhibition of TNFα secretion, Prednisolone 0.5 μM, Tripelennamine HCl μM r5-r13: 0,0.31,0.61,1.2,2.4,4.9,9.8,20,39) of 35%, an inhibition at 1 µM (read-out: % inhibition of TNFα secretion, Prednisolone 1 μM, Tripelennamine HCl μM r5-r13: 0,0.31,0.61,1.2,2.4,4.9,9.8,20,39) of 40% and an inhibition at 0.5 µM (read-out: inhibition of TNFα secretion, prednisolone 0.5 μM, azatadine maleate r5-r13: 0,0.27,0.54,1.1,2.1,4.3,8.6,17,34 μM) of 35%. It also gave an inhibition at 0.5 µM (read-out: inhibition of TNFα secretion, prednisolone 0.5 μM, bromodiphenhydramine HCl r5-r13: 0,0.21,0.43,0.85,1.7,3.4,6.8,14,27 μM) of 34%, an inhibition at 0.5 µM (read-out: inhibition of TNFα secretion, prednisolone 0.5 μM, chlorpheniramine maleate r5-r13: 0,0.2,0.4,0.8,1.6,3.2,6.4,13,26 μM) of 28% and an inhibition at 0.5 µM (read-out: inhibition of TNFα secretion, prednisolone 0.5 μM, clemizole HCl r5-r13: 0,0.22,0.43,0.86,1.7,3.5,6.9,14,28 μM) of 37%. It also gave an inhibition at 0.5 µM (read-out: inhibition of TNFα secretion, prednisolone 0.5 μM, doxylamine succinate r5-r13: 0,0.2,0.4,0.8,1.6,3.2,6.4,13,26 μM) of 32%, an inhibition at 0.5 µM (read-out: inhibition of TNFα secretion, prednisolone 0.5 μM, fexofenadine HCl r5-r13: 0,0.073,0.15,0.29,0.58,1.2,2.3,4.6,9.3 μM) of 45% and an inhibition at 0.5 µM (read-out: inhibition of TNFα secretion, prednisolone 0.5 μM, loratadine r5-r13: 0,0.2,0.41,0.82,1.6,3.3,6.5,13,26 μM) of 29%. It also gave an inhibition at 0.5 µM (read-out: inhibition of TNFα secretion, prednisolone 0.5 μM, meclizine HCl r5-r13: 0,0.32,0.63,1.3,2.5,5.1,10,20,41 μM) of 36%, an inhibition at 0.5 µM (read-out: inhibition of TNFα secretion, prednisolone 0.5 μM, promethazine HCl r5-r13: 0,0.24,0.49,0.97,1.9,3.9,7.8,16,31 μM) of 32% and an inhibition at 0.5 µM (read-out: inhibition of TNFα secretion, prednisolone 0.5 μM, pyrilamine maleate r5-r13: 0,0.19,0.38,0.76,1.5,3,6.1,12,24 μM) of 24%. For the same molecule, the inhibition at 1 µM (read-out: inhibition of TNFα secretion, prednisolone 1 μM, azatadine maleate r5-r13: 0,0.27,0.54,1.1,2.1,4.3,8.6,17,34 μM) was 43%, the inhibition at 1 µM (read-out: inhibition of TNFα secretion, prednisolone 1 μM, bromodiphenhydramine HCl r5-r13: 0,0.21,0.43,0.85,1.7,3.4,6.8,14,27 μM) was 37% and the inhibition at 1 µM (read-out: inhibition of TNFα secretion, prednisolone 1 μM, cetrizine HCl r5-r13: 0,0.2,0.4,0.8,1.6,3.2,6.4,13,26 μM) was 40%. It also gave an inhibition at 1 µM (read-out: inhibition of TNFα secretion, prednisolone 1 μM, chlorpheniramine maleate r5-r13: 0,0.2,0.4,0.8,1.6,3.2,6.4,13,26 μM) of 39%, an inhibition at 1 µM (read-out: inhibition of TNFα secretion, prednisolone 1 μM, clemizole HCl r5-r13: 0,0.22,0.43,0.86,1.7,3.5,6.9,14,28 μM) of 40% and an inhibition at 1 µM (read-out: inhibition of TNFα secretion, prednisolone 1 μM, cyproheptadine HCl r5-r13: 0,0.24,0.48,0.96,1.9,3.9,7.7,15,31 μM) of 39%. The inhibition at 1 µM (read-out: inhibition of TNFα secretion, prednisolone 1 μM, doxylamine succinate r5-r13: 0,0.2,0.4,0.8,1.6,3.2,6.4,13,26 μM) was 35%, the inhibition at 1 µM (read-out: inhibition of TNFα secretion, prednisolone 1 μM, fexofenadine HCl r5-r13: 0,0.073,0.15,0.29,0.58,1.2,2.3,4.6,9.3 μM) was 45% and the inhibition at 1 µM (read-out: inhibition of TNFα secretion, prednisolone 1 μM, loratadine r5-r13: 0,0.2,0.41,0.82,1.6,3.3,6.5,13,26 μM) was 40%. The inhibition at 1 µM (read-out: inhibition of TNFα secretion, prednisolone 1 μM, meclizine HCl r5-r13: 0,0.32,0.63,1.3,2.5,5.1,10,20,41 μM) was 44%, the inhibition at 1 µM (read-out: inhibition of TNFα secretion, prednisolone 1 μM, promethazine HCl r5-r13: 0,0.24,0.49,0.97,1.9,3.9,7.8,16,31 μM) was 39% and the inhibition at 1 µM (read-out: inhibition of TNFα secretion, prednisolone 1 μM, pyrilamine maleate r5-r13: 0,0.19,0.38,0.76,1.5,3,6.1,12,24 μM) was 31%. For the same molecule, the inhibition at 1 µM (read-out: inhibition of TNFα secretion, prednisolone 1 μM, thiethylperazine maleate r5-r13: 0,0.2,0.39,0.78,1.6,3.1,6.3,13,25 μM) was 39%, the inhibition at 0.5 µM (read-out: percent inhibition of TNFα secretion, Prednisolone 0.5 μM, Bromodiphenhydramine HCl μM r5-r13: 0,0.21,0.43,0.85,1.7,3.4,6.8,14,27) was 34% and the inhibition at 0.5 µM (read-out: percent inhibition of TNFα secretion, Prednisolone 0.5 μM, Clemizole μM r5-r13: 0,0.22,0.43,0.86,1.7,3.5,6.9,14,28) was 37%. The inhibition at 0.5 µM (read-out: percent inhibition of TNFα secretion, Prednisolone 0.5 μM, Loratadine μM r5-r13: 0,0.2,0.41,0.82,1.6,3.3,6.5,13,26) was 29%, the inhibition at 0.5 µM (read-out: percent inhibition of TNFα secretion, Prednisolone 0.5 μM, Promethazine HCl μM r5-r13: 0,0.24,0.49,0.97,1.9,3.9,7.8,16,31) was 32% and the inhibition at 1 µM (read-out: percent inhibition of TNFα secretion, Prednisolone 1 μM, Bromodiphenhydramine HCl μM r5-r13: 0,0.21,0.43,0.85,1.7,3.4,6.8,14,27) was 37%. The inhibition at 1 µM (read-out: percent inhibition of TNFα secretion, Prednisolone 1 μM, Clemizole μM r5-r13: 0,0.22,0.43,0.86,1.7,3.5,6.9,14,28) was 40%, the inhibition at 1 µM (read-out: percent inhibition of TNFα secretion, Prednisolone 1 μM, Cyproheptadine μM r5-r13: 0,0.24,0.48,0.96,1.9,3.9,7.7,15,31) was 39% and the inhibition at 1 µM (read-out: percent inhibition of TNFα secretion, Prednisolone 1 μM, Loratadine μM r5-r13: 0,0.2,0.41,0.82,1.6,3.3,6.5,13,26) was 40%. The inhibition at 1 µM (read-out: percent inhibition of TNFα secretion, Prednisolone 1 μM, Promethazine HCl μM r5-r13: 0,0.24,0.49,0.97,1.9,3.9,7.8,16,31) was 39% and the inhibition at 1 µM (read-out: percent inhibition of TNFα secretion, Prednisolone 1 μM, Thiethylperazine μM r5-r13: 0,0.2,0.39,0.78,1.6,3.1,6.3,13,25) was 39%.
